Peptide text beside a SMILES is read from it. * marks the point of attachment. Cbz = O=C(OCc1ccccc1)*
Legend:
Format in all cases: cell-based, human
IκBα [1] = assay: Reversibility of inhibition of IκBα degradation after washout in U937 cells; settings: 10 μM for 45 min, washed, 45 min later TNF-α 1 ng/ml, 10 min
Description: In parallel cells were exposed to MG132, a rapidly reversible competitive inhibitor of the proteasome or with lactacystin which covalently and irreversibly modifies the active site threonine residues. The results are shown by FIG. 1F.
U937 cells were pretreated with 100 nM of PR-39, 10 μM of either MG132 or lactacystin (LC) or buffer (Control) for 45 min. These cells were then extensively washed with fresh medium. 45 min later TNF-α (1 ng/ml) was added to medium, and the extent of IκBα degradation was determined 10 min later by Western blotting.

NFκB = assay: NFκB-dependent luciferase reporter (pNFκB-Luc) in ECV304 cells; settings: 45 min pretreatment with 10 μM, TNF-α 1 ng/ml
Description: The results are presented by FIG. 2A.
The effect of PR-39-mediated inhibition of IκBα degradation on NFκB-dependent transcription was tested in ECV304 cells transiently transfected with pNFκB-Luc reporter vector.

IκBα [2] = assay: TNF-α induced degradation of IκBα in U937 cells; settings: 45 min pretreatment with 10 μM, TNF-α 1 ng/ml, 10 min
Description: Tumor necrosis factor (TNF)-α is known to induce rapid degradation of IκBα by the Ub-proteasome pathway.
As shown by FIG. 1E, PR-39 prevents TNF-a induced degradation of IκBα. U937 cells were cultured in 10% FBs-RPMI medium in the absence (−) or presence of TNF-a (1 ng/ml). 10 min following TNF-α addition, the cells were washed and IκBα protein levels assessed by Western blotting.
Note that a […] 45 min of pretreatment with 100 nM of PR-39 or 10 μM of MG132 or lactacystin (LC) prior to addition of blocked TNF-α, blocked cytokine-induced degradation of IκBα expression.

HSP70 = HSP70 expression by Western blotting
U937 cells = assay: Proteasome-dependent degradation of total cellular proteins (35S Met pulse-chase); settings: Homo sapiens, U-937, 1 hr chase, chloroquin 45 μM, after 16 hr metabolic labeling, read-out: inhibition of total cell protein degradation
Description: Therefore the extent of degradation of long-lived cell proteins before or following exposure was compared to either PR-39 or MG132. The result is given by FIG. 3A.
Exponentially proliferating U937 cells were grown in 10% FBS-RPMI 1640 methionine-free medium supplemented with 200 μCi ^35S Met for 16 hr. Cells were then washed with complete RPMI 1640 medium 3 times and cultured in 10% FBS-RPMI (chase) in the presence of 10 μM of either PR-39 or MG132 or an equal volume of PBS. Chloroquin (45 μM) was added to all cultures to prevent the lysosomal protein degradation. 1 hr later the cells were lysed, and TCA soluble ^35S counts were measured in a liquid scintillation counter (LKB). All experiments were carried out in triplicate and repeated three times. The data are shown as mean±standard deviation.

IκBα [3] = assay: IκBα protein levels in ECV304 cells by Western blotting; settings: ECV304 cells, 2 hr, 10 μM
Description: For IκBα expression studies, normally proliferating wild type ECV304 cells (ECV) or ECV-PR-39 and ECV-E4 cells were lysed in the loading buffer, subjected to electrophoresis on 10% SDS-PAGE gel and transferred to a PVDF membrane. IκBα expression was then determined by Western blotting with anti-IκBα antibody (Santa Cruz, Inc.). ECV304 cells treated for 2 hr with 10 μM of lactacystin (LC) were used as control.
Western blotting of ECV cell lysate was carried out following 2 hr exposure to buffer (0) or 100 or 50 nM of PR-39. […] Clearly, exposure of wild type ECV304 cells to the synthetic PR-39 peptide led to a dose-dependent increase in IκBα levels.

| SMILES | extent of IκBα degradation after washout (IκBα [1]) | TNF-α induced increase in luciferase activity (NFκB) | TNF-α caused decline of the level of IκBα (IκBα [2]) | HSP70 expression (HSP70; U937 cells, 1 μM, 3 hr exposure) | HSP70 levels (HSP70; cultured ECV304 cells, 10 μM) | inhibition at 10 µM (U937 cells) | IκBα levels (IκBα [3]) |
| --- | --- | --- | --- | --- | --- | --- | --- |
| CC(C)C[C@@H](C=O)NC(=O)[C@H](CC(C)C)NC(=O)[C@H](CC(C)C)NC(=O)OCc1ccccc1 [MG132, reference compound] (Cbz-Leu-Leu-Leu-aldehyde) | complete disappearance of IκBα protein | completely blocked | markedly reduced | appearance of HSP70 expression | striking increase in HSP70 levels | ~50% | – |
| CC(=O)N[C@@H](CSC(=O)[C@]1([C@@H](O)C(C)C)NC(=O)[C@H](C)[C@@H]1O)C(=O)O [lactacystin] | irreversibly blocked proteasome-mediated degradation of IκBα | completely blocked | markedly reduced | – | – | – | increased IκBα levels |

Source: US7169604B1, “Method for PR-39 peptide mediated selective inhibition of IκBα degradation” (Beth Israel Deaconess Medical Center, priority 1998, dated 2007)
